Measurements from PMC11850616, “Nanomolar inhibitor of the galectin-8 N-terminal domain binds via a non-canonical cation-π interaction” (Communications Chemistry, 2025).
Where “and” joins values, the source holds several entries; their conditions need not be identical. Equal values may be shown once. Read-outs that look alike come from different tables or passages of the source.

Legend:
[1] = molecular target: T1, Gal-8N (galectin-8 N-terminal domain) (Homo sapiens, UniProt O00214); conditions: cited from earlier work
T1 construct: made in house
T1 sequence (O00214 19-152 limits assumed): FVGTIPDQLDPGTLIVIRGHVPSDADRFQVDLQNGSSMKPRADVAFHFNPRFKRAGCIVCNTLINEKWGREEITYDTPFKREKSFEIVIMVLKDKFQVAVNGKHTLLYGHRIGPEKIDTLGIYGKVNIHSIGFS

Gal-8C [2] = molecular target: T2, Gal-8C (Homo sapiens, UniProt O00214); set-up: method as in PMID 34225180; conditions: cited from earlier work
T2 construct: than to the C-terminal domain (Gal-8C)
T2 sequence (O00214 187-317 limits assumed): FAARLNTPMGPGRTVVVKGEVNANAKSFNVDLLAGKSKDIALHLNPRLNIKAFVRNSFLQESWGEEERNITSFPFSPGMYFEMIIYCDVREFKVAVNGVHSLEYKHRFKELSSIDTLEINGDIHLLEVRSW

Gal-3 [3] = molecular target: T3, Gal-3 (Homo sapiens, UniProt P17931); conditions: cited from earlier work; for Gal-3 selectivity ratio Kd (Gal-3)/Kd (Gal-8N): selectivity for Gal-8N over Gal-3 (fold)
T3 construct: made in house
T3 sequence (P17931 whole entry): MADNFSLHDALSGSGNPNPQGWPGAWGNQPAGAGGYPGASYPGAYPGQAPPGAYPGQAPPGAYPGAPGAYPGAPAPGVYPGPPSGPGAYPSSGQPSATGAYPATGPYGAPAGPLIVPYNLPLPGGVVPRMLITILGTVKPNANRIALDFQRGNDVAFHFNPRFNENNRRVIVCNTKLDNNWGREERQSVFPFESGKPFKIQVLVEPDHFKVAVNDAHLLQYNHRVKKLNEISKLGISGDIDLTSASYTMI

Gal-8N [4] = molecular target: T4, Gal-8N (Homo sapiens, UniProt O00214); test: isothermal titration calorimetry (ITC), binding to Gal-8N; conditions: for ΔΔH compared to 1: difference vs compound 1
T4 construct: consisting of residues 4-158 was produced by Lund Protein Production Platform; made in house; host or cells: E. coli TUNER(DE3)
T4 sequence (O00214 4-158): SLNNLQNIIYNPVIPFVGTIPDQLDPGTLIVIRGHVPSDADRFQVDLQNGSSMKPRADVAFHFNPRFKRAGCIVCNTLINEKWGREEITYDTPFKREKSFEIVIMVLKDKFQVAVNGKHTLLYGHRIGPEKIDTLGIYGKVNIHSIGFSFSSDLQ
Experimental: Isothermal titration calorimetry (ITC) experiments were conducted using a Microcal PEAQ-ITC isothermal titration calorimeter (Malvern Instruments, Malvern Panalytical Ltd) at 25 °C. Lyophilized Gal-8N was first dissolved in PBS buffer (with a 4.3 mM β-mercaptoethanol) with a pH = 7.4 and Gal-8N was dialyzed with a 0.5–3 mL Slide-A-Lyzer™ 7k MWCO Dialysis Cassette in the same buffer. To remove residual lactose, Gal-8N was additionally purified using Superdex 75 Increase column equilibrated in PBS with 5% DMSO. Fractions containing Gal-8N were collected and concentrated with Amicon® Ultra-0.5 Centrifugal Filter Device with a 10k MWCO to a final concentration of about 40 µM. A280 was measured using the NanoDrop^TM One Microvolume UV-VIS spectrophotometer and the concentration of Gal-8N was calculated (ε = 11460 L mol^−1 cm^−1 was used). 16 mM stock solutions of 1, 11, and 29 were prepared in pure DMSO. The 16 mM stock solutions were diluted to 800 μM with pure PBS and then to the final concentration of 560 μM (the final content of DMSO was 5%). Titrations were performed with 19 injections of Gal-8N inhibitors 1, 11 (560 μM) and 29 (800 μM) with a following settings: reference power = 10.0 µcal s^−1, feedback = high, stir speed = 750, Initial delay = 100 s, first spacing = 200 s, the other spacings = 150 s.
Raw thermograms were exported and integrated with the NITPIC (version 2.0.7)[43] and then analyzed with SEDPHAT (version 15.2)[44],[45]. Parameter and error analysis were performed using the Monte-Carlo approach for nonlinear regression with 1000 iterations as implemented in SEDPHAT.

Gal-1 [5] = molecular target: T5, Gal-1 (Homo sapiens, UniProt P09382); set-up: method as in PMID 34225180; conditions: cited from earlier work
T5 construct: made in house
T5 sequence (P09382 whole entry): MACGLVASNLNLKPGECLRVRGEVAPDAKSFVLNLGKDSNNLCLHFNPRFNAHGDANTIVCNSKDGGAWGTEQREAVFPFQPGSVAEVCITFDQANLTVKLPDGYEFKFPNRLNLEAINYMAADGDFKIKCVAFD

Gal-3 [6] = molecular target: T3, Gal-3; test: competitive fluorescence polarisation assay, Gal-3; type: binding; conditions: for Kd: competitive FP, mean ± SEM of n = 4 to 8, 20 °C, read-out: Kd Gal-3; for Gal-3 selectivity ratio Kd (Gal-3)/Kd (Gal-8N): ratio of FP Kd values
Experimental: (§1) Human galectins-1, -3, and -8N were expressed and purified as described previously[8],[23],[24]. Competitive fluorescence polarization assays were performed with a PHERAstar FS plate reader with software PHERAstar Mars version 2.10 R3 (BMG, Offenburg, Germany) and Tecan Spark multimode microplate reader (Tecan Trading AG, Switzerland), where a fluorescence anisotropy of fluorescent-tagged probes was measured by excitation at 485 nm and emission at 520 nm. Experiments were performed at 20 °C with Gal-1 at 0.5 µM, Gal-3 at 0.2 µM, and Gal-8N at 0.4 µM. Fluorescent probes used for experiments were 3,3′-dideoxy-3-[4-(fluorescein-5-yl-carbonylaminomethyl)-1H-1,2,3-triazol-1-yl]-3′-(3,5-di-methoxybenzamido)-1,1′-sulfanediyl-di-β-D-galactopyranoside at 0.02 µM for Gal-1 and -3 and 2-(fluorescein-5-yl-carbonylamino)ethyl β-D-galactopyranosyl(1-4)-2-acetamido-2-deoxy-β-D-glucopyranosyl(1–3)-β-D-galactopyranosyl(1–4)-β-D-glucopyranoside at 0.1 µM for Gal-8N in each well. Compounds were first dissolved in pure DMSO at 20 mM concentration and later diluted in 5% DMSO in PBS solution to 5-7 different concentrations. Each concentration was tested in duplicate. The highest inhibitor concentrations tested were 1.5 mM. The average values of Kd and SEM (standard error mean) were calculated from 4 to 8 duplicate measurements, showing 10–90% inhibition.

[7] = molecular target: T1, Gal-8N (galectin-8 N-terminal domain); test: competitive fluorescence polarisation assay, Gal-8N; type: binding; conditions: competitive FP, mean ± SEM of n = 4 to 8, 20 °C; read-out: Kd Gal-8N
Experimental: as §1

Gal-8N [8] = molecular target: T4, Gal-8N; test: ligand efficiency (LE) and ligand-lipophilicity efficiency (LLE) calculations; conditions: for LLE: from Gal-8N Kd and clogP; for LE: from Gal-8N Kd and number of non-hydrogen atoms
Gal-1 [9] = molecular target: T5, Gal-1; test: competitive fluorescence polarisation assay, Gal-1; type: binding; conditions: for Kd: competitive FP, mean ± SEM of n = 4 to 8, 20 °C; for Gal-1 selectivity ratio Kd (Gal-1)/Kd (Gal-8N): ratio of FP Kd values
Experimental: as §1

Gal-8C [10] = molecular target: T2, Gal-8C; test: competitive fluorescence polarisation assay, Gal-8C; type: binding; conditions: for Kd: competitive FP, mean ± SEM of n = 4 to 8; for Gal-8C selectivity ratio Kd (Gal-8C)/Kd (Gal-8N): ratio of FP Kd values
[11] = 25 °C, PBS buffer, 1:1 binding model, n = 2

SMILES | Kd (Gal-3 [6]) | Gal-3 selectivity ratio Kd (Gal-3)/Kd (Gal-8N) (Gal-3 [6]) | Kd [7] | LLE (Gal-8N [8]) | LE (Gal-8N [8]) | Kd (Gal-1 [9]) | Gal-1 selectivity ratio Kd (Gal-1)/Kd (Gal-8N) (Gal-1 [9]) | Kd (Gal-8C [10]) | Gal-8C selectivity ratio Kd (Gal-8C)/Kd (Gal-8N) (Gal-8C [10]) | also measured
Cn1c(CO[C@@H]2[C@@H](O)[C@@H](Sc3ccc(Cl)c(Cl)c3)O[C@H](CO)[C@@H]2O)nc2ccc(C(=O)O)cc21 [Compound 1, reference compound] |  |  |  |  |  |  |  |  |  | fold more potent than D-galactose (Gal-8N) [1]: ~ 5000 fold; Gal-8C selectivity ratio Kd (Gal-8C)/Kd (Gal-8N) (Gal-8C [2]): 422; Gal-3 selectivity ratio Kd (Gal-3)/Kd (Gal-8N) (Gal-3 [3]): 2.8; -TΔS (Gal-8N [4]; [11]): 3.35 kcal/mol and 3.35 ± 3.11 kcal/mol; Kd (Gal-8N [4]; [11]): 5 µM; ΔG (Gal-8N [4]; [11]): -7.22 kcal/mol and -7.22 ± 0.14 kcal/mol; ΔH (Gal-8N [4]; [11]): -10.5 kcal/mol and -10.5 ± 2.87 kcal/mol; -TΔS (Gal-8N [4]; TRIS buffer): 4.54 kcal/mol; Kd (Gal-8N [4]; TRIS buffer): 4.5 µM; ΔG (Gal-8N [4]; TRIS buffer): -7.34 kcal/mol; ΔH (Gal-8N [4]; TRIS buffer): -12 kcal/mol; Gal-1 selectivity ratio Kd (Gal-1)/Kd (Gal-8N) (Gal-1 [5]): 72
Cn1c(CO[C@H]2[C@@H](O)[C@@H](CO)O[C@H](Sc3ccc(Cl)c(Cl)c3)[C@@H]2OCC(=O)O)nc2ccc(C(=O)O)cc21 [Compound 29] | 3.3 ± 0.2 µM | 6.6 | 0.5 ± 0.03 µM | 2.84 | 0.227 (kcal/mol)/heavy atom | 49 ± 3.6 µM | 98 | 449 ± 39 µM | 898 | -TΔS (Gal-8N [4]; [11]): 5.26 ± 0.72 kcal/mol and 5.26 kcal/mol; Kd (Gal-8N [4]; [11]): 0.6 µM; ΔG (Gal-8N [4]; [11]): -8.44 ± 0.096 kcal/mol and -8.44 kcal/mol; ΔH (Gal-8N [4]; [11]): -13.6 ± 0.72 kcal/mol and -13.6 kcal/mol; ΔΔH compared to 1 (Gal-8N [4]): –13 kJ mol^−1
O=C(O)[C@H](CC1CCCCC1)O[C@@H]1[C@@H](O)[C@@H](Sc2ccc(Cl)c(Cl)c2)O[C@H](CO)[C@@H]1O [Compound 2] |  |  |  |  |  |  |  |  |  | Kd [1]: 12 µM; Kd (Gal-3 [3]; Fig. 1, earlier inhibitors, read-out: Kd: galectin-3): 82 µM; selectivity over Gal-3 (Gal-3 [3]; Gal-8N over Gal-3): 6.8 fold
O=C[C@H](O)[C@@H](O)[C@@H](O)[C@H](O)CO [D-galactose] |  |  |  |  |  |  |  |  |  | Kd (Gal-3 [3]; read-out: affinity for Gal-3): ~5000 µM
Cn1c(CO[C@@H]2C=CO[C@H](CO)[C@@H]2O)nc2ccc(C(=O)O)cc21 [Compound 3] |  |  |  |  |  |  |  |  |  | Gal-3 selectivity ratio Kd (Gal-3)/Kd (Gal-8N) (Gal-3 [3]): 14
Cn1c(CO[C@H]2[C@@H](O)[C@@H](CO)O[C@H](Sc3ccc(Cl)c(Cl)c3)[C@@H]2OCc2cn(-c3cccc(C(=O)O)c3)nn2)nc2ccc(C(=O)O)cc21 [Compound 16b] | 2.9 ± 0.4 µM | 4.5 | 0.65 ± 0.05 µM | 1.11 | 0.173 (kcal/mol)/heavy atom | 37 ± 1.1 µM | 57 | 100 ± 2 µM | 154 | 
Cn1c(CO[C@H]2[C@@H](O)[C@@H](CO)O[C@H](Sc3ccc(Cl)c(Cl)c3)[C@@H]2OCc2cccc(Cl)c2)nc2ccc(C(=O)O)cc21 [Compound 8f] | 5.8 ± 0.7 µM | 3.2 | 1.8 ± 0.18 µM | -0.422 | 0.187 (kcal/mol)/heavy atom | 15 ± 1.3 µM | 8.3 | 225 ± 37 µM | 125 | 
C#CCO[C@@H]1[C@@H](OCc2nc3ccc(C(=O)O)cc3n2C)[C@@H](O)[C@@H](CO)O[C@@H]1Sc1ccc(Cl)c(Cl)c1 [Compound 11] | 1.4 ± 0.2 µM | 1.75 | 0.8 ± 0.09 µM | 2.01 | 0.226 (kcal/mol)/heavy atom | 10 ± 0.71 µM |  | 390 ± 14 µM | 488 | -TΔS (Gal-8N [4]; [11]): 6.69 ± 2.2 kcal/mol and 6.69 kcal/mol; Kd (Gal-8N [4]; [11]): 1.3 µM; ΔG (Gal-8N [4]; [11]): -8.01 ± 0.12 kcal/mol and -8.01 kcal/mol; ΔH (Gal-8N [4]; [11]): -14.6 ± 1.9 kcal/mol and -14.6 kcal/mol; ΔΔH compared to 1 (Gal-8N [4]): –17 kJ mol^−1; ΔΔH compared to 29 (Gal-8N [4]; difference vs compound 29): –4 kJ mol^−1
COC(=O)c1ccc(-n2cc(CO[C@@H]3[C@@H](OCc4nc5ccc(C(=O)O)cc5n4C)[C@@H](O)[C@@H](CO)O[C@@H]3Sc3ccc(Cl)c(Cl)c3)nn2)cc1 [Compound 15c] | 23 ± 4.9 µM | 5.6 | 4.1 ± 0.33 µM | 0.109 | 0.147 (kcal/mol)/heavy atom | 99 ± 3.1 µM | 24 | 350 ± 60 µM | 85 | 
CO[C@@H]1[C@@H](OCc2nc3ccc(C(=O)O)cc3n2C)[C@@H](O)[C@@H](CO)O[C@@H]1Sc1ccc(Cl)c(Cl)c1 [Compound 32] | 4.5 ± 0.7 µM | 3.5 | 1.3 ± 0.05 µM | 2.08 | 0.231 (kcal/mol)/heavy atom | 16 ± 0.8 µM | 12.3 | 358 ± 29 µM | 275 | 
Cn1c(CO[C@H]2[C@@H](O)[C@@H](CO)O[C@H](Sc3ccc(Cl)c(Cl)c3)[C@@H]2OCc2ccc(Cl)c(Cl)c2)nc2ccc(C(=O)O)cc21 [Compound 8e] | 12 ± 3 µM | 2.8 | 4.3 ± 0.4 µM | -1.38 | 0.171 (kcal/mol)/heavy atom | 20 ± 0.84 µM | 4.7 | 577 ± 4 µM | 134 | 
Cn1c(CO[C@H]2[C@@H](O)[C@@H](CO)O[C@H](Sc3ccc(Cl)c(Cl)c3)[C@@H]2OCc2ccc(F)cc2)nc2ccc(C(=O)O)cc21 [Compound 8d] | 4.2 ± 0.6 µM | 2.6 | 1.6 ± 0.06 µM | 0.203 | 0.189 (kcal/mol)/heavy atom | 14 ± 1.2 µM | 8.8 | 301 ± 28 µM | 188 | 
